Reference: article PMC8414988 (Pediatric blood & cancer, 2021)

Experiment: Adverse events graded by NCI CTCAE v4.0, all reported regardless of attribution
Type: in vivo, human

CC(=O)c1c(C)c2cnc(Nc3ccc(N4CCNCC4)cn3)nc2n(C2CCCC2)c1=O [palbociclib]
most common toxicity (Stratum I and II): myelosuppression
Alanine aminotransferase increased, episodes (Stratum I, grade 1): 4(4)
Alanine aminotransferase increased, patients (Stratum I, grade 1): 4(4)
Anemia, episodes (Stratum I, grade 1): 7
Anemia, patients (Stratum I, grade 1): 5
Ataxia, episodes (Stratum I, grade 1): 1(1)
Ataxia, patients (Stratum I, grade 1): 1(1)
Constipation, episodes (Stratum I, grade 1): 8
Constipation, patients (Stratum I, grade 1): 6
Diarrhea, episodes (Stratum I, grade 1): 4
Diarrhea, patients (Stratum I, grade 1): 3
Dry skin, episodes (Stratum I, grade 1): 3(3)
Dry skin, patients (Stratum I, grade 1): 3(3)
Fatigue, episodes (Stratum I, grade 1): 7(7)
Fatigue, patients (Stratum I, grade 1): 7(7)
Headache, episodes (Stratum I, grade 1): 4
Headache, patients (Stratum I, grade 1): 3
Hypokalemia, episodes (Stratum I, grade 1): 5
Hypokalemia, patients (Stratum I, grade 1): 4
Lymphocyte count decreased, episodes (Stratum I, grade 1): 22
Lymphocyte count decreased, patients (Stratum I, grade 1): 8
Mucositis oral, episodes (Stratum I, grade 1): 5
Mucositis oral, patients (Stratum I, grade 1): 2
Nausea, episodes (Stratum I, grade 1): 4
Nausea, patients (Stratum I, grade 1): 3
Neutrophil count decreased, episodes (Stratum I, grade 1): 8
Neutrophil count decreased, patients (Stratum I, grade 1): 5
Platelet count decreased, episodes (Stratum I, grade 1): 28
Platelet count decreased, patients (Stratum I, grade 1): 10
Vomiting, episodes (Stratum I, grade 1): 5
Vomiting, patients (Stratum I, grade 1): 4
White blood cell decreased, episodes (Stratum I, grade 1): 14
White blood cell decreased, patients (Stratum I, grade 1): 9
Anemia, episodes (Stratum I, grade 2): 2(2)
Anemia, patients (Stratum I, grade 2): 2(2)
Ataxia, episodes (Stratum I, grade 2): 3(3)
Ataxia, patients (Stratum I, grade 2): 3(3)
Fatigue, episodes (Stratum I, grade 2): 3(3)
Fatigue, patients (Stratum I, grade 2): 3(3)
Gait disturbance, episodes (Stratum I, grade 2): 2(2)
Gait disturbance, patients (Stratum I, grade 2): 2(2)
Headache, episodes (Stratum I, grade 2): 3
Headache, patients (Stratum I, grade 2): 2
Hypokalemia, episodes (Stratum I, grade 2): 1(1)
Hypokalemia, patients (Stratum I, grade 2): 1(1)
Lymphocyte count decreased, episodes (Stratum I, grade 2): 17
Lymphocyte count decreased, patients (Stratum I, grade 2): 4
Mucositis oral, episodes (Stratum I, grade 2): 5
Mucositis oral, patients (Stratum I, grade 2): 2
Nausea, episodes (Stratum I, grade 2): 1(1)
Nausea, patients (Stratum I, grade 2): 1(1)
Neutrophil count decreased, episodes (Stratum I, grade 2): 26
Neutrophil count decreased, patients (Stratum I, grade 2): 7
Vomiting, episodes (Stratum I, grade 2): 1(1)
Vomiting, patients (Stratum I, grade 2): 1(1)
White blood cell decreased, episodes (Stratum I, grade 2): 37
White blood cell decreased, patients (Stratum I, grade 2): 14
Ataxia, episodes (Stratum I, grade 3): 1(1)
Ataxia, patients (Stratum I, grade 3): 1(1)
Gait disturbance, episodes (Stratum I, grade 3): 1(1)
Gait disturbance, patients (Stratum I, grade 3): 1(1)
Lymphocyte count decreased, episodes (Stratum I, grade 3): 12
Lymphocyte count decreased, patients (Stratum I, grade 3): 7
Muscle weakness left-sided, episodes (Stratum I, grade 3): 3(3)
Muscle weakness left-sided, patients (Stratum I, grade 3): 3(3)
Nausea, episodes (Stratum I, grade 3): 1(1)
Nausea, patients (Stratum I, grade 3): 1(1)
Neutrophil count decreased, episodes (Stratum I, grade 3): 27
Neutrophil count decreased, patients (Stratum I, grade 3): 9
Vomiting, episodes (Stratum I, grade 3): 1(1)
Vomiting, patients (Stratum I, grade 3): 1(1)
White blood cell decreased, episodes (Stratum I, grade 3): 19
White blood cell decreased, patients (Stratum I, grade 3): 3
Neutrophil count decreased, episodes (Stratum I, grade 4): 3(3)
Neutrophil count decreased, patients (Stratum I, grade 4): 3(3)
Alanine aminotransferase increased, episodes (Stratum I, overall): 4(4)
Alanine aminotransferase increased, patients (Stratum I, overall): 4(4)
Anemia, episodes (Stratum I, overall): 9
Anemia, patients (Stratum I, overall): 7
Ataxia, episodes (Stratum I, overall): 5(5)
Ataxia, patients (Stratum I, overall): 5(5)
Constipation, episodes (Stratum I, overall): 8
Constipation, patients (Stratum I, overall): 6
Diarrhea, episodes (Stratum I, overall): 4
Diarrhea, patients (Stratum I, overall): 3
Dry skin, episodes (Stratum I, overall): 3(3)
Dry skin, patients (Stratum I, overall): 3(3)
Fatigue, episodes (Stratum I, overall): 10
Fatigue, patients (Stratum I, overall): 9
Gait disturbance, episodes (Stratum I, overall): 3(3)
Gait disturbance, patients (Stratum I, overall): 3(3)
Headache, episodes (Stratum I, overall): 7
Headache, patients (Stratum I, overall): 4
Hypokalemia, episodes (Stratum I, overall): 6
Hypokalemia, patients (Stratum I, overall): 5
Lymphocyte count decreased, episodes (Stratum I, overall): 51
Lymphocyte count decreased, patients (Stratum I, overall): 13
Mucositis oral, episodes (Stratum I, overall): 10
Mucositis oral, patients (Stratum I, overall): 3
Muscle weakness left-sided, episodes (Stratum I, overall): 3(3)
Muscle weakness left-sided, patients (Stratum I, overall): 3(3)
Nausea, episodes (Stratum I, overall): 6
Nausea, patients (Stratum I, overall): 3
Neutrophil count decreased, episodes (Stratum I, overall): 64
Neutrophil count decreased, patients (Stratum I, overall): 15
Platelet count decreased, episodes (Stratum I, overall): 28
Platelet count decreased, patients (Stratum I, overall): 10
Vomiting, episodes (Stratum I, overall): 7
Vomiting, patients (Stratum I, overall): 5
White blood cell decreased, episodes (Stratum I, overall): 70
White blood cell decreased, patients (Stratum I, overall): 17
Alanine aminotransferase increased, episodes (Stratum II, grade 1): 3
Alanine aminotransferase increased, patients (Stratum II, grade 1): 2
Anemia, episodes (Stratum II, grade 1): 17
Anemia, patients (Stratum II, grade 1): 9
Anorexia, episodes (Stratum II, grade 1): 3(3)
Anorexia, patients (Stratum II, grade 1): 3(3)
Aspartate aminotransferase increased, episodes (Stratum II, grade 1): 2(2)
Aspartate aminotransferase increased, patients (Stratum II, grade 1): 2(2)
Constipation, episodes (Stratum II, grade 1): 1(1)
Constipation, patients (Stratum II, grade 1): 1(1)
Dizziness, episodes (Stratum II, grade 1): 3
Dizziness, patients (Stratum II, grade 1): 2
Electrocardiogram qt corrected interval prolonged, episodes (Stratum II, grade 1): 3
Electrocardiogram qt corrected interval prolonged, patients (Stratum II, grade 1): 2
Fatigue, episodes (Stratum II, grade 1): 2(2)
Fatigue, patients (Stratum II, grade 1): 2(2)
Headache, episodes (Stratum II, grade 1): 1(1)
Headache, patients (Stratum II, grade 1): 1(1)
Hypercalcemia, episodes (Stratum II, grade 1): 2(2)
Hypercalcemia, patients (Stratum II, grade 1): 2(2)
Hyperkalemia, episodes (Stratum II, grade 1): 2(2)
Hyperkalemia, patients (Stratum II, grade 1): 2(2)
Hypokalemia, episodes (Stratum II, grade 1): 3(3)
Hypokalemia, patients (Stratum II, grade 1): 3(3)
Lymphocyte count decreased, episodes (Stratum II, grade 1): 10
Lymphocyte count decreased, patients (Stratum II, grade 1): 5
Mucositis oral, episodes (Stratum II, grade 1): 1(1)
Mucositis oral, patients (Stratum II, grade 1): 1(1)
Neutrophil count decreased, episodes (Stratum II, grade 1): 6
Neutrophil count decreased, patients (Stratum II, grade 1): 4
Pain, episodes (Stratum II, grade 1): 1(1)
Pain, patients (Stratum II, grade 1): 1(1)
Platelet count decreased, episodes (Stratum II, grade 1): 16
Platelet count decreased, patients (Stratum II, grade 1): 8
Vomiting, episodes (Stratum II, grade 1): 5
Vomiting, patients (Stratum II, grade 1): 3
White blood cell decreased, episodes (Stratum II, grade 1): 13
White blood cell decreased, patients (Stratum II, grade 1): 5
Anemia, episodes (Stratum II, grade 2): 3(3)
Anemia, patients (Stratum II, grade 2): 3(3)
Constipation, episodes (Stratum II, grade 2): 2
Constipation, patients (Stratum II, grade 2): 1
Dizziness, episodes (Stratum II, grade 2): 1(1)
Dizziness, patients (Stratum II, grade 2): 1(1)
Fatigue, episodes (Stratum II, grade 2): 2(2)
Fatigue, patients (Stratum II, grade 2): 2(2)
Headache, episodes (Stratum II, grade 2): 1(1)
Headache, patients (Stratum II, grade 2): 1(1)
Lymphocyte count decreased, episodes (Stratum II, grade 2): 6
Lymphocyte count decreased, patients (Stratum II, grade 2): 3
Mucositis oral, episodes (Stratum II, grade 2): 1(1)
Mucositis oral, patients (Stratum II, grade 2): 1(1)
Neutrophil count decreased, episodes (Stratum II, grade 2): 19
Neutrophil count decreased, patients (Stratum II, grade 2): 10
Platelet count decreased, episodes (Stratum II, grade 2): 5
Platelet count decreased, patients (Stratum II, grade 2): 3
White blood cell decreased, episodes (Stratum II, grade 2): 18
White blood cell decreased, patients (Stratum II, grade 2): 9
Headache, episodes (Stratum II, grade 3): 2(2)
Headache, patients (Stratum II, grade 3): 2(2)
Lymphocyte count decreased, episodes (Stratum II, grade 3): 3(3)
Lymphocyte count decreased, patients (Stratum II, grade 3): 3(3)
Neutrophil count decreased, episodes (Stratum II, grade 3): 13
Neutrophil count decreased, patients (Stratum II, grade 3): 9
Pain, episodes (Stratum II, grade 3): 1(1)
Pain, patients (Stratum II, grade 3): 1(1)
Platelet count decreased, episodes (Stratum II, grade 3): 2(2)
Platelet count decreased, patients (Stratum II, grade 3): 2(2)
Seizure, episodes (Stratum II, grade 3): 3(3)
Seizure, patients (Stratum II, grade 3): 3(3)
Vomiting, episodes (Stratum II, grade 3): 1(1)
Vomiting, patients (Stratum II, grade 3): 1(1)
White blood cell decreased, episodes (Stratum II, grade 3): 7
White blood cell decreased, patients (Stratum II, grade 3): 6
Neutrophil count decreased, episodes (Stratum II, grade 4): 1(1)
Neutrophil count decreased, patients (Stratum II, grade 4): 1(1)
Platelet count decreased, episodes (Stratum II, grade 4): 1(1)
Platelet count decreased, patients (Stratum II, grade 4): 1(1)
Alanine aminotransferase increased, episodes (Stratum II, overall): 3
Alanine aminotransferase increased, patients (Stratum II, overall): 2
Anemia, episodes (Stratum II, overall): 20
Anemia, patients (Stratum II, overall): 10
Anorexia, episodes (Stratum II, overall): 3(3)
Anorexia, patients (Stratum II, overall): 3(3)
Aspartate aminotransferase increased, episodes (Stratum II, overall): 2(2)
Aspartate aminotransferase increased, patients (Stratum II, overall): 2(2)
Constipation, episodes (Stratum II, overall): 3
Constipation, patients (Stratum II, overall): 2
Dizziness, episodes (Stratum II, overall): 4
Dizziness, patients (Stratum II, overall): 3
Electrocardiogram qt corrected interval prolonged, episodes (Stratum II, overall): 3
Electrocardiogram qt corrected interval prolonged, patients (Stratum II, overall): 2
Fatigue, episodes (Stratum II, overall): 4(4)
Fatigue, patients (Stratum II, overall): 4(4)
Headache, episodes (Stratum II, overall): 4(4)
Headache, patients (Stratum II, overall): 4(4)
Hypercalcemia, episodes (Stratum II, overall): 2(2)
Hypercalcemia, patients (Stratum II, overall): 2(2)
Hyperkalemia, episodes (Stratum II, overall): 2(2)
Hyperkalemia, patients (Stratum II, overall): 2(2)
Hypokalemia, episodes (Stratum II, overall): 3(3)
Hypokalemia, patients (Stratum II, overall): 3(3)
Lymphocyte count decreased, episodes (Stratum II, overall): 19
Lymphocyte count decreased, patients (Stratum II, overall): 7
Mucositis oral, episodes (Stratum II, overall): 2(2)
Mucositis oral, patients (Stratum II, overall): 2(2)
Neutrophil count decreased, episodes (Stratum II, overall): 39
Neutrophil count decreased, patients (Stratum II, overall): 11
Pain, episodes (Stratum II, overall): 2(2)
Pain, patients (Stratum II, overall): 2(2)
Platelet count decreased, episodes (Stratum II, overall): 24
Platelet count decreased, patients (Stratum II, overall): 8
Seizure, episodes (Stratum II, overall): 3(3)
Seizure, patients (Stratum II, overall): 3(3)
Vomiting, episodes (Stratum II, overall): 6
Vomiting, patients (Stratum II, overall): 4
White blood cell decreased, episodes (Stratum II, overall): 38
White blood cell decreased, patients (Stratum II, overall): 11
